Consider 2 molecules from paper PMC12314375, “The GTPase κB-Ras is an essential subunit of the RalGAP tumor suppressor complex” (The Journal of Biological Chemistry, 2025).

In assay [1] the target is T1, κB-Ras1 (Homo sapiens, UniProt Q9NYS0, G64A).
T1 construct: gene NKIRAS1; residues 2-175, GST fusion from E. coli Rosetta, GST cut on column with PreScission protease, SEC
T1 sequence (Q9NYS0 2-175 G64A): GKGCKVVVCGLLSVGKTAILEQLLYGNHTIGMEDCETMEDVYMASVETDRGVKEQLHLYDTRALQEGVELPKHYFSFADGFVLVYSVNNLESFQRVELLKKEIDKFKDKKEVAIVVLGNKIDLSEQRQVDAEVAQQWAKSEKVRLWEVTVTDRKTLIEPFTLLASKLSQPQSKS
Put plainly: intrinsic GTP hydrolysis, HPLC of GTP/GDP. It counts as biochemical. Particulars: 100 µM GTP, 24 h, 5 mM MgCl2, pH 7.5.

The target in assay [2] is T2, κB-Ras1 (Homo sapiens, UniProt Q9NYS0, L65Q).
T2 construct: gene NKIRAS1; residues 2-175, GST fusion from E. coli Rosetta, GST cut on column with PreScission protease, SEC
T2 sequence (Q9NYS0 2-175 L65Q): T1 sequence (Q9NYS0 2-175 G64A) with A63G, L64Q
Put plainly: intrinsic GTP hydrolysis, HPLC of GTP/GDP. It counts as biochemical. Particulars: 100 µM GTP, 24 h, 5 mM MgCl2, pH 7.5.

Assay [3] addresses T3, κB-Ras1 (Homo sapiens, UniProt Q9NYS0).
T3 construct: gene NKIRAS1; residues 2-175, GST fusion from E. coli Rosetta, GST cut on column with PreScission protease, SEC
T3 sequence (Q9NYS0 2-175): T1 sequence (Q9NYS0 2-175 G64A) with A63G
Put plainly: intrinsic GTP hydrolysis, HPLC of GTP/GDP. The format is biochemical. Particulars: 100 µM GTP, 24 h, 5 mM MgCl2, pH 7.5.

The target in another assay is T4, κB-Ras1–RGα2N complex (Homo sapiens, UniProt Q9NYS0).
T4 construct: gene NKIRAS1; GST-κB-Ras1 (2-175; 1-175 in Results) coexpressed in bacteria with 6xHis-SUMO-RGα2N (2-255, N-terminal domain); SUMO protease added, purified essentially as before, SEC
T4 sequence (Q9NYS0 2-175): T1 sequence (Q9NYS0 2-175 G64A) with A63G
T4 sequence (Q2PPJ7 2-255 partner): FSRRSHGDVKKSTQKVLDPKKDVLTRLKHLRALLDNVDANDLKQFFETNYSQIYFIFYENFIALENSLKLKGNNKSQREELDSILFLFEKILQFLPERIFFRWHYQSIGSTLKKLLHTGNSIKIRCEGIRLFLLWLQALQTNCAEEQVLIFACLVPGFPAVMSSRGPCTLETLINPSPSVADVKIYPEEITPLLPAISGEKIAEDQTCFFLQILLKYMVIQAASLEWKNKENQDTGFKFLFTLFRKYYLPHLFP
Put plainly: X-ray crystal structure, […] Å. As to conditions: Mg2+; 100 µM GNP added; nucleotide-binding pocket of κB-Ras1.

Positions count from the first letter of the chain named.

Regarding `Nc1nc2c(ncn2[C@@H]2O[C@H](COP(=O)(O)OP(=O)(O)OP(=O)(O)O)[C@@H](O)[C@H]2O)c(=O)[nH]1` [GTP], the “intrinsic GTP hydrolysis, HPLC of GTP/GDP” value on κB-Ras1 [1] is “This substitution did not reduce intrinsic GTP hydrolysis activity of κB-Ras1 in vitro”; on κB-Ras1 [2], “GTP hydrolysis was also not altered by this mutation”; on κB-Ras1 [3] it was “intrinsic GTP hydrolysis by K-Ras, Rheb, κB-Ras1 WT, and variants measured in vitro”.

With `Nc1nc2c(ncn2[C@@H]2O[C@H](COP(=O)(O)OP(=O)(O)NP(=O)(O)O)[C@@H](O)[C@H]2O)c(=O)[nH]1` [GNP, 5′-guanylyl imidodiphosphate], on κB-Ras1–RGα2N complex, the “X-ray crystal structure, 2.72 Å” value was “nucleotide-binding pocket of κB-Ras1 is occupied by a magnesium ion and the nonhydrolyzable GTP analog”.
